Test [1] relates to MOLM-13-Cas9-mCherry cells with SHP2 KO. In words: SHP2 CRISPR-Cas9 knockout inhibitor selectivity assay (cell viability). Format: cell-based. The note with it: MOLM-13-Cas9-mCherry SHP2 KO cells, 72 h. The protocol:
Finally, we evaluated the selectivity of our top two compounds, #01 and #02, on MOLM-13 AML cells in which SHP2 was depleted using CRISPR-Cas9 knock-out (KO). High-efficiency Cas9-editing MOLM-13 cells were generated by transducingMOLM-13 cells with a Cas9 lentiviral construct. Stable clones were tested for editing efficiency by performing TIDE analysis (45), and these MOLM13-Cas9 cells were transduced with a lentiviral construct containing an AAVS1 single guide RNA (sgRNA) and an mCherry reporter for bulk-sorting of cells with successful AAVS1 editing. SHP2 KO was achieved by transducing MOLM-13-Cas9-mCherry cells with a lentivirus containing SHP2 dual sgRNAs, resulting in ˜80% reduction of SHP2 protein levels (FIG. 3G). #01, #02, and the SHP2 allosteric inhibitor SHP099 were tested in parallel on regular MOLM-13 cells (expressing WT SHP2) and MOLM-13-Cas9-mCherry cells with SHP2 KO. Cells were treated with inhibitors at various concentrations (ranging from […] to 58 nM) or vehicle control (DMSO) for 72 h, before cell viability was assessed.
High-efficiency Cas9-editing MOLM-13 cells were generated by transducing MOLM-13 cells with the pLenti-Cas9-blasticidin construct (Addgene plasmid #52962) and selecting single stable clones using flow-sorting. Clones were then tested for editing efficiency by performing TIDE analysis (45). These MOLM13-Cas9 cells were then transduced with a lentiviral construct containing an AAVS sgRNA and an mCherry reporter out of frame and downstream of an AAVS sgRNA targeting site. […]
For SHP2 KO, dual sgRNAs targeting SHP2 were cloned in the pLentiGuide puro vector (Addgene plasmid #52963) using a published protocol (50). […] SHP2 KO was evaluated by immunoblotting. […] For SHP2 KO, MOLM-13-Cas9-mCherry cells were seeded in nontreated 6-well-plates ([…] in 2.5 mL), with cell numbers determined by trypan blue using the Countess Cell counter (Thermo Scientific). […] Cell viability was assessed using the ATP-depletion assay CellTiter-Glo® (Promega) as described above, and data were analyzed using GraphPad Prism software.

For a further test, the target named is SHP2-E76K (Homo sapiens (Human), UniProt Q06124, E76K). In words: Michaelis-Menten kinetics and mode of inhibition. The test is classed as biochemical. The protocol:
Using nonlinear regression, initial rates at various inhibitor and substrate concentrations were fitted to the Michaelis-Menten equations for competitive, noncompetitive, uncompetitive, and mixed inhibition. Fitting models were then compared using Akaike's Information Criterion (AIC), and inhibition mode probabilities were calculated from the differences between the corresponding second-order corrected AIC scores.
#02 was tested with SHP2-E76K using a similar assay format as described above. #02 or vehicle (DMSO) were spotted in triplicate into a black Greiner FLUOTRAC™ 200 384-well microplate (#781076, Greiner) using an Echo 555 Liquid Handler (Labcyte, Inc., San Jose, CA). SHP2-E76K working solution was prepared and dispensed as described above and incubated with inhibitor for 20 min at RT. DiFMUP working solutions at 5×final concentration were prepared in 50 mM Bis-Tris pH 6.0, 50 mMNaCl, and 0.01% Tween 20. […] Fluorescence intensity was measured in kinetic mode as described above. The initial rates were determined from the linear progression curves of each SHP2-E76K reaction. […] For a comparison of the fitting results, the second-order corrected Akaike's Information Criterion (AICc) was calculated using equation 1, where N is the number of data points, SS the absolute sum of squares, and K the number of parameters fit by nonlinear regression plus 1.

SHP2-E76K, sequence (Q06124 whole entry E76K): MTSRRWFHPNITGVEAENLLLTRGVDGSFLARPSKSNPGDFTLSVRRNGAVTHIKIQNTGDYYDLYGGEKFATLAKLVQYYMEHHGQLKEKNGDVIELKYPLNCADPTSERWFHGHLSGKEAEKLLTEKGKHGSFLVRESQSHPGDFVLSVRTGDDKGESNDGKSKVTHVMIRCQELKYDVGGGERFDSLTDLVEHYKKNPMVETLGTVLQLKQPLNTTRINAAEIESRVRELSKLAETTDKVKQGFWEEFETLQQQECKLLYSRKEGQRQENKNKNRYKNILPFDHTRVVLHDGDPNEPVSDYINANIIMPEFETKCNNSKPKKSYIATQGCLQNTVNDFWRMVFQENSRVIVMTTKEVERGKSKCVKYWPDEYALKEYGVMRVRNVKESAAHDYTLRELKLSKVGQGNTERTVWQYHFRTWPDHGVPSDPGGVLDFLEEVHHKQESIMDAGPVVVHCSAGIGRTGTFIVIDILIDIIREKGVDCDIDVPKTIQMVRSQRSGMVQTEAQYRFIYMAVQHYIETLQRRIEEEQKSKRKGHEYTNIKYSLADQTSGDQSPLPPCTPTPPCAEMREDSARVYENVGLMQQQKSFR

Regarding `Nc1ccc(NC(=O)c2cc(-c3ccc(/C=C4\Sc5ccccc5C4=O)o3)ccc2O)cc1` [#01, (Z)—N-(4-Aminophenyl)-2-hydroxy-5-(5-((3-oxobenzo[b]thiophen-2(3H)-ylidene)methyl)furan-2-yl)benzamide], the “effect on viability of SHP2 KO cells” value in test [1] is “either no effect, or a greatly reduced effect”.
In general, Ki refers to a measure of affinity in units of concentration, obtained from inhibition or displacement. Consider `O=C(Nc1ccccc1)c1cc(-c2ccc(/C=C3\Sc4ccccc4C3=O)o2)ccc1O` [#02, (Z)-2-hydroxy-5-(5-((3-oxobenzo[b]thiophen-2(3H)-ylidene)methyl)furan-2-yl)-N-phenylbenzamide], for which the “effect on viability of SHP2 KO cells” value in test [1] was “either no effect, or a greatly reduced effect”. On SHP2-E76K (AIC model comparison), the mode of inhibition entry is on record as “noncompetitive or mixed inhibition mechanism”. Moreover, the Ki on SHP2-E76K (DiFMUP substrate, read-out: inhibition constant (Ki) for noncompetitive inhibition) was determined as 1800 nM.

For the origin of these results see patent US20250026741A1, “INHIBITORS OF THE ONCOGENIC SHP2 PHOSPHATASE AND USES THEREOF” (Sanford Burnham Prebys Medical Discovery Institute, priority 2021, published 2025).
